Converted amounts (≈) assume the structure as drawn.
Conditions: buffer; pH 7.4; 200.0 µM

Row | SMILES | solubility kinetic [µg/mL]
1 | CC1(NC(=O)Cc2c(F)cccc2Cl)CCS(=O)(=O)C1 (stereo not given) | > 48
2 | O=C(Cc1ccccc1)NCc1ccccn1 | > 33.9
3 | Cc1cccc(NC(=O)c2cnccn2)c1 | 22.1 (≈ 104 µM)
4 | COc1ccccc1C(=O)NC(=O)COC(=O)C1CC1C (stereo not given) | > 43.7
5 | O=C(NNC(=S)Nc1ccccc1C(F)(F)F)c1cccnc1 | > 51
6 | CCCNC(=S)N1CCC(NC(=O)c2ccc(OC)cc2)CC1 | 20.3 (≈ 60.5 µM)
7 | CCCc1nc2ccc(N)cc2c(=O)n1Cc1ccccc1Cl | 13 (≈ 39.7 µM)
8 | Nc1ccc(N2CCOCC2)cc1C(F)(F)F | 33.9 (≈ 138 µM)
9 | COc1ccc(C(=O)COc2ncnc3cc(Cl)ccc23)cc1 | < 0.4
10 | O=C(OCC(=O)N1CCc2ccccc21)c1ccc([N+](=O)[O-])o1 | 8.2 (≈ 25.9 µM)
11 | Cc1csc2nc(O)c(C(=O)NCCCc3ccccc3)c(=O)n12 | 4.2 (≈ 12.2 µM)
12 | COc1ccc(NC(C)=O)cc1CNC(=O)CN1CCOCC1 | > 48.2
13 | Cn1c(-c2cccc([N+](=O)[O-])c2)[n+](C)c2ccccc21.[Cl-] | > 45.6
14 | CCOC(=O)Cn1nc(C)cc1NC(=O)c1ccncc1 | > 43.2
15 | S=c1[nH]c2ccccc2n2c(=S)[nH]nc12 | > 35.1
16 | Nc1cc(=O)[nH]c(SCC(=O)Nc2cccc(Cl)c2Cl)n1 | 8.4 (≈ 24.3 µM)
17 | CCC(=O)c1ccc(OCC(=O)NC2(C#N)CCCCC2)cc1 | 45.4 (≈ 144 µM)
18 | CCOC(=O)CNC(=O)Cc1ccc(OC)cc1 | > 37.7
19 | CCOC(=O)CC(=O)Nc1ccsc1C(N)=O | 36.1 (≈ 141 µM)
20 | Nc1ccc(-c2nc3ncccc3o2)c(O)c1 | 3.1 (≈ 13.6 µM)

Row | SMILES | solubility kinetic [µg/mL]
21 | Nc1ccc(S(=O)(=O)NC2=NCCCCC2)cc1N | > 42.4
22 | COc1ccc(NC2=C(NC(C)=O)C(=O)c3ccccc3C2=O)cc1 | 49.5 (≈ 147 µM)
23 | Cc1cc(C)nc(N2CCCC(C(=O)NC3CC3)C2)n1 (stereo not given) | > 41.2
24 | CCOCCCNC(=O)c1cc2c(=O)[nH]c3ccccc3c2s1 | 1.7 (≈ 5.15 µM)
25 | Cc1ccc(C(=O)Nc2ccc(S(=O)(=O)N3CCCC3)cc2)s1 | 7.2 (≈ 20.5 µM)
26 | CN(C)C(=O)CN1C(=O)NC2(CCCc3ccccc32)C1=O (stereo not given) | > 45.2
27 | CC(C)(CC(=O)O)CC(=O)Nc1ccc(Cl)c(Cl)c1 | > 45.6
28 | COc1ccccc1NC(=O)N1CCOCC1 | > 35.4
29 | O=C1Nc2ccccc2O/C1=C\c1ccccc1 | 1.2 (≈ 5.06 µM)
30 | CC(NC(=O)/C(=C\c1ccco1)NC(=O)c1ccco1)C(=O)O (stereo not given) | 46.5 (≈ 146 µM)
31 | CCn1cc(S(=O)(=O)NC2CCCCC2)cn1 | > 38.6
32 | COc1ccc(OCCNC(=O)c2ccccc2Cl)cc1 | > 45.9
33 | O=[N+]([O-])c1ccc2nonc2c1Nc1cccc(F)c1 | 1 (≈ 3.65 µM)
34 | COc1ccc(C(=O)N/C(=C\c2ccccc2)C(=O)Nc2ccccc2C(=O)O)cc1 | > 62.5
35 | COc1cc(CC(=O)O)c([N+](=O)[O-])cc1OC | > 36.2
36 | Cc1cccc(N2CCN(C(=O)c3ccc4ccccc4c3)CC2C)c1 (stereo not given) | 7.4 (≈ 21.5 µM)
37 | Cc1ccc(OCCn2cnc3c2c(=O)n(C)c(=O)n3C)cc1 | 6.3 (≈ 20 µM)
38 | CC(C)NC(=O)c1ccc(COc2ccc(C(C)(C)C)cc2)o1 | 0.7 (≈ 2.22 µM)
39 | CCCCc1nc2ccccc2[nH]1 | > 26.1
40 | NC1=NC(c2ccc(Cl)cc2)C(C(=O)c2ccccc2)N1 (stereo not given) | 4.9 (≈ 16.3 µM)

Row | SMILES | solubility kinetic [µg/mL]
41 | Nc1ccc2c(c1)C(=O)c1ccccc1-2 | 27.9 (≈ 143 µM)
42 | COc1ccccc1C(=O)N=c1sc2c(C)ccc(OC)c2n1C | 1.8 (≈ 5.26 µM)
43 | O=C(O)/C=C/C(=O)Nc1ccc(N2CCOCC2)nc1N1CCOCC1 | > 54.4
44 | CC(CN(C)C)CN1c2ccccc2CCc2ccccc21.O=C(O)/C=C\C(=O)O (stereo not given) | > 61.6
45 | Cn1cc([N+](=O)[O-])c(C(=O)NCC(=O)O)n1 | > 34.2
46 | COc1ccc(CNC(=O)C2CC(=O)N(C3CCCC3)C2)cc1 (stereo not given) | > 47.5
47 | O=C(Nc1ccc2c(c1)OCO2)C1CCCCC1 | > 37.1
48 | COc1ccc(CNC(=O)CCSCc2ccc(C)cc2)cc1 | 16.5 (≈ 50.1 µM)
49 | O=C(CCNS(=O)(=O)c1cccc(C(F)(F)F)c1)NCc1ccco1 | > 56.5
50 | CC(=O)N(CCN(C)C)c1nc2cc3c(cc2s1)OCCO3.Cl | 47.6
51 | COc1ccc(NC(=S)NC(=O)/C=C/c2ccco2)c(OC)c1 | < 0.4
52 | COc1ccccc1OCC(=O)NCCCN1CCOCC1 | 36.1 (≈ 117 µM)
53 | CC(C)c1ccc(NC(=O)CN2C(=O)NC3(CCCC3)C2=O)cc1 | > 49.4
54 | O=C(Nc1nc2ccccc2s1)Nc1ccc(F)cc1F | < 0.2
55 | CC1(C)Cc2ccccc2C(C(=O)c2ccccc2)=N1 | 31 (≈ 118 µM)
56 | CCN1C(=O)C(=Cc2ccc(N3CCOCC3)o2)C(=O)N(CC)C1=S | 1.1 (≈ 3.03 µM)
57 | O=C(Nc1ccccc1C(=O)Nc1ccccn1)c1ccc([N+](=O)[O-])cc1 | 0.6 (≈ 1.66 µM)
58 | Clc1cccc(C2CCN(Cc3nc(CC4CC4)no3)C2)c1 (stereo not given) | 12.3 (≈ 38.7 µM)
59 | CC(C)(C)c1ccc(C(=O)N2CCC(C(=O)NC3CC3)CC2)cc1 | 48 (≈ 146 µM)
60 | Cn1c(N)c(C(=O)COC(=O)/C=C/c2cccc(Cl)c2)c(=O)n(C)c1=O | 3.3 (≈ 8.74 µM)

Source: PubChem BioAssay AID1996
